Results as given in patent publication US20050186569A1, “Nucleic acid-associated proteins” (priority 2001, published 2005).

Assays:
[1] = tested on: SEQ ID NO:100 expression in HMVECdNeos; assay: Microarray expression analysis of HMVECdNeos treated with TNF-α versus untreated cells; assay type: cell-based, human; conditions: HMVECdNeos at 85% confluence treated 1, 2, 4, 8, and 24 hours with TNF-α, versus untreated (0 hour)
Procedure: (§1) Total RNA is isolated from tissue samples using the guanidinium thiocyanate method and poly(A)^+ RNA is purified using the oligo-(dT) cellulose method. Each poly(A)^+ RNA sample is reverse transcribed using MMLV reverse-transcriptase, 0.05 pg/μl oligo-(dT) primer (21mer), 1× first strand buffer, 0.03 units/μl RNase inhibitor, 500 μM dATP, 500 μM dGTP, 500 μM dTTP, 40 μM dCTP, 40 μM dCTP-Cy3 (BDS) or dCTP-Cy5 (Amersham Biosciences). The reverse transcription reaction is performed in a […] containing 200 ng poly(A)^+ RNA with GEMBRIGHT kits (Incyte Genomics). Specific control poly(A)^+ RNAs are synthesized by in vitro transcription from non-coding yeast genomic DNA. […]
(§2) Sequences of the present invention are used to generate array elements. […] Array elements are amplified in thirty cycles of PCR from an initial quantity of 1-2 ng to a final quantity greater than 5 μg. […]
(§3) Reporter-labeled hybridization complexes are detected with a microscope equipped with an Innova 70 mixed gas 10 W laser (Coherent, Inc., Santa Clara Calif.) capable of generating spectral lines at 488 nm for excitation of Cy3 and at 632 nm for excitation of Cy5. […]
(§4) A grid is superimposed over the fluorescence signal image such that the signal from each spot is centered in each element of the grid. […]

[2] = tested on: SEQ ID NO:108 expression in HMVECdNeo cells; assay: Microarray RNA expression of HMVECdNeo cells treated with TNF-α versus untreated cells; assay type: cell-based, human; conditions: TNF-α 10 ng/ml for 2, 4, 8, and 24 hours, result at the last three time points, versus untreated (0 hour)
Procedure: as §1, §2, §3, §4

## TNF-α
[1]
  expression of SEQ ID NO:100: decreased expression
[2]
  expression of SEQ ID NO:108 (underexpressed): at least two-fold
